In patent US6809181B2, “Human beta-defensin-3 (HBD-3), a highly cationic beta-defensin antimicrobial peptide” (University of Iowa Research Foundation, priority 2000, dated 2004):
In brackets after ≈: the same amount, converted by molar mass.

Assays:
Ureaplasma urealyticum = conditions: n=19, r143, cited from earlier work
Staphylococcus aureus = conditions: n=100, r142, cited from earlier work
Mycoplasma pneumoniae = conditions: n=11, r141, cited from earlier work
Mycoplasma hominis = conditions: n=28, r140, cited from earlier work
[1] = tested on: HBD-3 mRNA expression in cultured gingival keratinocytes; experiment: RT-PCR of HBD-3 mRNA in cultured gingival keratinocytes; type: cell-based, human; conditions: 100 ng/ml IL-1β for 24 h
[2] = tested on: HBD-3 mRNA expression in fetal lung explants; experiment: RT-PCR of HBD-3 mRNA in fetal lung explants; type: cell-based, human; conditions: 100 ng/ml IL-1β for 24 h

## CCC[C@@H]1C[C@@H](C(=O)N[C@@H]([C@H]2O[C@H](SC)[C@H](O)[C@@H](O)[C@H]2O)[C@@H](C)O)N(C)C1 [LINCOMYCIN, lincomycin]
Ureaplasma urealyticum
  Range: 64-128
Ureaplasma urealyticum; unit assumed
  MIC50: 128 mg/L (≈ 315 µM)
  MIC90: 128 mg/L (≈ 315 µM)
Staphylococcus aureus
  Range: 0.5-512
Staphylococcus aureus; unit assumed
  MIC50: 1 mg/L (≈ 2.46 µM)
  MIC90: 1 mg/L (≈ 2.46 µM)
Mycoplasma pneumoniae
  Range: 2-32
Mycoplasma pneumoniae; unit assumed
  MIC50: 8 mg/L (≈ 19.7 µM)
  MIC90: 32 mg/L (≈ 78.7 µM)
Mycoplasma hominis
  Range: 0.5-16
Mycoplasma hominis; unit assumed
  MIC50: 2 mg/L (≈ 4.92 µM)
  MIC90: 4 mg/L (≈ 9.84 µM)

## IL-1β: IL-1β (R & D Systems), pro-inflammatory stimulus used at 100 ng/ml to induce HBD-3 mRNA expression
[1]
  HBD-3 mRNA expression: increased markedly
[2]
  HBD-3 mRNA expression: increased markedly
